Results: ChEMBL document CHEMBL4665878, “A new naphthalene derivative with anti-amyloidogenic activity as potential therapeutic agent for Alzheimer's disease” (Bioorg Med Chem, 2020)
Values belong to the molecule of their own block, whether it stands above or below them. Active and inactive are the calls of the source. The rule behind the calls is not given here.

How the values were obtained:
[1] = biological target: Amyloid-beta precursor protein (Homo sapiens) (UniProt P05067); experiment: Inhibition of Abeta(1 to 42) peptide aggregation in immortalized human microglia with SV40 assessed as reduction in fluorescence intensity at 0.001 to 50 micromol/L and measured after 48 hrs by thiazine red staining method; format: tissue-based; settings: dose micromol/L 0.001-50, time 48.0 hrs
Mus musculus [2] = experiment: Reduction in amyloid fibril elongation in po dosed 3xTg-AD transgenic mouse brain hippocampus subiculum using BAM-10 primary antibody by immunohistochemical assay relative to 3xTg-AD-non T; format: functional, organism-based
Mus musculus [3] = experiment: Reduction in amyloid beta plaques in po dosed 3xTg-AD transgenic mouse brain hippocampus subiculum using BAM-10 primary antibody by immunohistochemical assay relative to 3xTg-AD-non T; format: functional, organism-based
Mus musculus [4] = experiment: Cognitive enhancing effect in female 3xTg-AD transgenic mouse harboring human PS1M146V/APPSWE/tauP301L assessed as escape latency time at 1 mg/kg, po for 8 weeks by Morris water maze test; format: functional, organism-based
[5] = biological target: Amyloid-beta precursor protein (Homo sapiens) (UniProt P05067); experiment: Inhibition of Abeta(1 to 42) peptide aggregation in immortalized human microglia with SV40 assessed as reduction in fluorescence intensity at 1 uM and measured after 48 hrs by thiazine red staining method
[6] = Octanol/PBS partition co-efficient, log P of compound; format: physicochemical
[7] = Ex vivo binding affinity to amyloid beta (1 to 42) in 3xTg-AD transgenic APP/PS1 mouse brain section assessed as binding constant after 40 mins by autoradiography; format: tissue-based
Mus musculus [8] = experiment: Cognitive enhancing effect in female 3xTg-AD transgenic mouse harboring human PS1M146V/APPSWE/tauP301L assessed as latency to enter to the target quadrant at 1 mg/kg, po for 8 weeks by Morris water maze test; format: functional, organism-based
Astrocyte = experiment: Cytotoxicity against C57BL/J6 mouse astrocyte assessed as cell viability after 24 hrs by MTT assay; format: cell-based
Mus musculus [9] = experiment: Cognitive enhancing effect in 3xTg-AD transgenic mouse harboring human PS1M146V/APPSWE/tauP301L assessed as number of entries to the target quadrant at 1 mg/kg, po for 8 weeks measured by Morris water maze test; format: functional, organism-based
Mus musculus [10] = experiment: Cognitive enhancing effect in female 3xTg-AD transgenic mouse harboring human PS1M146V/APPSWE/tauP301L assessed as time spent in the target quadrant at 1 mg/kg, po for […] by Morris water maze test; format: functional, organism-based; settings: time 8.0 weeks
[11] = biological target: Amyloid-beta precursor protein (Homo sapiens) (UniProt P05067); experiment: Inhibition of Abeta(1 to 42) peptide aggregation in immortalized human microglia with SV40 assessed as reduction in fluorescence intensity at 1 nM and measured after 48 hrs by thiazine red staining method; format: tissue-based

Amyloid-beta precursor protein (Homo sapiens), sequence (P05067 whole entry): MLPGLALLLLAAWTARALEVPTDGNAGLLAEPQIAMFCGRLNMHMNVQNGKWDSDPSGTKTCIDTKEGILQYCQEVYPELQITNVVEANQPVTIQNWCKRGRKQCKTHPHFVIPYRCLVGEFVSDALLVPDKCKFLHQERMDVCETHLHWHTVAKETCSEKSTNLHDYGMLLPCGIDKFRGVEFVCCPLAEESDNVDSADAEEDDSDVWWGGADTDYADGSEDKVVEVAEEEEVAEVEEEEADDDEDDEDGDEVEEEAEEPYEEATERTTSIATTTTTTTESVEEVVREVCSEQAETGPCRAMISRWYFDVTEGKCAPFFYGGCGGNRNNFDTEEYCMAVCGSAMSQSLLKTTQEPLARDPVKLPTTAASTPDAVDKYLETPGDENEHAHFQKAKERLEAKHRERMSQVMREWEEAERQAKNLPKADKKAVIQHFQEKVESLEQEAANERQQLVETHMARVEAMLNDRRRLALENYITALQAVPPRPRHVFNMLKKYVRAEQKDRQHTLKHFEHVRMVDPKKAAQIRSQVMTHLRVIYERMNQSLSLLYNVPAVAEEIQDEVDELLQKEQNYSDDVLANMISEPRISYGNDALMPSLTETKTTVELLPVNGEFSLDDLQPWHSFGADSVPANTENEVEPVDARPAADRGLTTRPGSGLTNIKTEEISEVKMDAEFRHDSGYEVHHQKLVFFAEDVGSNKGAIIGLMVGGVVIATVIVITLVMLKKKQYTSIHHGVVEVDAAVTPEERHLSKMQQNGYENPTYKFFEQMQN

logP [6]: 1.77
Kd [7]: 0.0158 µM
Compound: CSC(=S)NCCNC(=O)CCC(=O)Nc1cccc2ccccc12
inhibition [1]: Active
inhibition (Mus musculus [2]): Active
Activity (Mus musculus [3]): Active
Activity (Mus musculus [4]): inactive
inhibition [5]: Active
Activity (Mus musculus [8]): inactive
IC50 (Astrocyte): 195 µM
Activity (Mus musculus [9]): Active
Activity (Mus musculus [10]): inactive

Compound: O=C(O)CCCCCNC(=O)CCC(=O)Nc1cccc2ccccc12
inhibition [1]: Active
inhibition [11]: Active
IC50 (Astrocyte): 433 µM

Compound: O=C(O)CCNC(=O)CCC(=O)Nc1cccc2ccccc12
inhibition [1]: Active
inhibition [11]: Active
IC50 (Astrocyte): 874 µM

Kd [7]: 0.016 µM
Compound: CNc1ccc(/C=C/c2ccc(OCCOCCOCCF)cc2)cc1 [FLORBETABEN]
